Results as given in patent US20240293421A1, “CRYSTALLINE COMPOSITION OF TILDACERFONT AND METHODS OF USE AND PREPARATION THEREOF” (Spruce Biosciences, Inc., priority 2021, published 2024).

Tests used:
[1] = Stability under accelerated aging conditions (40±2° C./75±5% RH); assay type: physicochemical; set-up: key to Related Substances by HPLC: a. C07102401-F-Imp1 / Related Substances by HPLC: b. C07102401-F-Imp2 / Related Substances by HPLC: c. Any unspecified impurity / Related Substances by HPLC: d. Total impurities: BDRL: below disregard limit; conditions: for Description / Identification by FT-IR / Identification by XRPD / Related Substances by HPLC: a. C07102401-F-Imp1 / Related Substances by HPLC: b. C07102401-F-Imp2 / Related Substances by HPLC: c. Any unspecified impurity / Related Substances by HPLC: d. Total impurities / Water Content by KF / Assay of Compound 1 by HPLC: accelerated aging 40±2° C./75±5% RH; for Assay of Compound 1 by HPLC: on anhydrous basis and solvent free basis
Text: (§1) To determine the stability of the crystalline compositions prepared comprising the methods described herein, crystalline compositions comprising Compound 1 and oxalic acid were formulated. Samples of the crystalline composition comprising Compound 1-oxalic acid co-crystal were packed in a transparent low-density polyethylene (LDPE) bag, and closed by twisting the bag and tying it with a strip seal. The transparent LDPE bag was then placed in a black LDPE bag that was twisted and tied with a strip seal. The bags were then placed in a high-density polyethylene container. The samples were then subjected to accelerated aging conditions (40±2° C./75±5% relative humidity (RH)) or long-term storage conditions (25±2° C./60±5% RH). Sample stability measurements in each condition were measured at baseline (before exposure to accelerated aging conditions or long-term storage conditions), and one month, two months, and three months after exposure to said conditions. Sample stability measurements included a description of the sample's physical appearance (e.g., color and form), identification by Fourier-transform infrared spectroscopy (FT-IR), identification by X-ray powder diffraction (XRPD), water content (measured by Karl Fischer (KF) on a % weight/weight basis), identification of related substances (e.g., impurities), and high-performance liquid chromatography ((HPLC) measured on a % weight/weight on an anhydrous basis and solvent free basis). Samples of the crystalline composition comprising Compound 1-oxalic acid co-crystal prepared in Example 3 are subjected to accelerated aging conditions (40±2° C./75±5% relative humidity (RH)) or long-term storage conditions (25±2° C./60±5% RH). Sample stability measurements in each condition are measured at baseline (before exposure to accelerated aging conditions or long-term storage conditions), and four months, five months, six months, seven months, eight months, nine months, ten months, eleven months, twelve months, fourteen months, sixteen months, and eighteen months after exposure to said conditions. Sample stability measurements include a description of the sample's physical appearance (e.g., color and form), identification by Fourier-transform infrared spectroscopy (FT-IR), identification by X-ray powder diffraction (XRPD), water content (measured by Karl Fischer (KF) on a % weight/weight basis), identification of related substances (e.g., impurities), and high-performance liquid chromatography ((HPLC) measured on a % weight/weight on an anhydrous basis and solvent free basis).

[2] = Stability under long-term storage conditions (25±2° C./60±5% RH); assay type: physicochemical; set-up: key to Related Substances by HPLC: a. C07102401-F-Imp1 / Related Substances by HPLC: b. C07102401-F-Imp2 / Related Substances by HPLC: c. Any unspecified impurity / Related Substances by HPLC: d. Total impurities: BDRL: below disregard limit; conditions: for Description / Identification by FT-IR / Identification by XRPD / Related Substances by HPLC: a. C07102401-F-Imp1 / Related Substances by HPLC: b. C07102401-F-Imp2 / Related Substances by HPLC: c. Any unspecified impurity / Related Substances by HPLC: d. Total impurities / Water Content by KF / Assay of Compound 1 by HPLC: long-term storage 25±2° C./60±5% RH; for Assay of Compound 1 by HPLC: on anhydrous basis and solvent free basis
Text: as §1

CCC(CC)c1cc(C)nc2c(-c3sc(N4CCOCC4)nc3Cl)c(C)nn12 [Compound 1-oxalic acid co-crystal]
Description ([1]; 1 month): Light yellow | Identification by FT-IR ([1]; 1 month): concordant | Identification by XRPD ([1]; 1 month): is consistent | Related Substances by HPLC: a. C07102401-F-Imp1 ([1]; 1 month): BDRL | Related Substances by HPLC: b. C07102401-F-Imp2 ([1]; 1 month): BDRL | Related Substances by HPLC: c. Any unspecified impurity ([1]; 1 month): BDRL | Related Substances by HPLC: d. Total impurities ([1]; 1 month): BDRL | Water Content by KF ([1]; 1 month): 0.09 % w/w | Description ([1]; 2 months): Light yellow | Identification by FT-IR ([1]; 2 months): concordant | Identification by XRPD ([1]; 2 months): is consistent | Related Substances by HPLC: a. C07102401-F-Imp1 ([1]; 2 months): BDRL | Related Substances by HPLC: b. C07102401-F-Imp2 ([1]; 2 months): BDRL | Related Substances by HPLC: c. Any unspecified impurity ([1]; 2 months): BDRL | Related Substances by HPLC: d. Total impurities ([1]; 2 months): BDRL | Water Content by KF ([1]; 2 months): 0.02 % w/w | Description ([1]; 3 months): Light yellow | Identification by FT-IR ([1]; 3 months): concordant | Identification by XRPD ([1]; 3 months): is consistent | Related Substances by HPLC: a. C07102401-F-Imp1 ([1]; 3 months): BDRL | Related Substances by HPLC: b. C07102401-F-Imp2 ([1]; 3 months): BDRL | Related Substances by HPLC: c. Any unspecified impurity ([1]; 3 months): BDRL | Related Substances by HPLC: d. Total impurities ([1]; 3 months): BDRL | Water Content by KF ([1]; 3 months): 0.08 % w/w | Description ([1]; baseline): Light yellow | Identification by FT-IR ([1]; baseline): concordant | Identification by XRPD ([1]; baseline): is consistent | Related Substances by HPLC: a. C07102401-F-Imp1 ([1]; baseline): BDRL | Related Substances by HPLC: b. C07102401-F-Imp2 ([1]; baseline): BDRL | Related Substances by HPLC: c. Any unspecified impurity ([1]; baseline): BDRL | Related Substances by HPLC: d. Total impurities ([1]; baseline): BDRL | Water Content by KF ([1]; baseline): 0.02 % w/w | Assay of Compound 1 by HPLC ([1]; 1 month): 99.2 % w/w | Assay of Compound 1 by HPLC ([1]; 2 months): 100.1 % w/w | Assay of Compound 1 by HPLC ([1]; 3 months): 99.2 % w/w | Assay of Compound 1 by HPLC ([1]; baseline): 99.9 % w/w | Stability (overall conclusion) ([1]; up to 3 months at accelerated aging conditions (40±2° C./75±5% RH)): stable | Description ([2]; 1 month): Light yellow | Identification by FT-IR ([2]; 1 month): concordant | Identification by XRPD ([2]; 1 month): is consistent | Related Substances by HPLC: a. C07102401-F-Imp1 ([2]; 1 month): BDRL | Related Substances by HPLC: b. C07102401-F-Imp2 ([2]; 1 month): BDRL | Related Substances by HPLC: c. Any unspecified impurity ([2]; 1 month): BDRL | Related Substances by HPLC: d. Total impurities ([2]; 1 month): BDRL | Water Content by KF ([2]; 1 month): 0.10 % w/w | Description ([2]; 2 months): Light yellow | Identification by FT-IR ([2]; 2 months): concordant | Identification by XRPD ([2]; 2 months): is consistent | Related Substances by HPLC: a. C07102401-F-Imp1 ([2]; 2 months): BDRL | Related Substances by HPLC: b. C07102401-F-Imp2 ([2]; 2 months): BDRL | Related Substances by HPLC: c. Any unspecified impurity ([2]; 2 months): BDRL | Related Substances by HPLC: d. Total impurities ([2]; 2 months): BDRL | Water Content by KF ([2]; 2 months): 0.03 % w/w | Description ([2]; 3 months): Light yellow | Identification by FT-IR ([2]; 3 months): concordant | Identification by XRPD ([2]; 3 months): is consistent | Related Substances by HPLC: a. C07102401-F-Imp1 ([2]; 3 months): BDRL | Related Substances by HPLC: b. C07102401-F-Imp2 ([2]; 3 months): BDRL | Related Substances by HPLC: c. Any unspecified impurity ([2]; 3 months): BDRL | Related Substances by HPLC: d. Total impurities ([2]; 3 months): BDRL | Water Content by KF ([2]; 3 months): 0.05 % w/w | Description ([2]; baseline): Light yellow | Identification by FT-IR ([2]; baseline): concordant | Identification by XRPD ([2]; baseline): is consistent | Related Substances by HPLC: a. C07102401-F-Imp1 ([2]; baseline): BDRL | Related Substances by HPLC: b. C07102401-F-Imp2 ([2]; baseline): BDRL | Related Substances by HPLC: c. Any unspecified impurity ([2]; baseline): BDRL | Related Substances by HPLC: d. Total impurities ([2]; baseline): BDRL | Water Content by KF ([2]; baseline): 0.02 % w/w | Assay of Compound 1 by HPLC ([2]; 1 month): 99.2 % w/w | Assay of Compound 1 by HPLC ([2]; 2 months): 100.1 % w/w | Assay of Compound 1 by HPLC ([2]; 3 months): 99.2 % w/w | Assay of Compound 1 by HPLC ([2]; baseline): 99.9 % w/w | Stability (overall conclusion) ([2]; up to 3 months at long-term storage conditions (25±2° C./60±5% RH)): stable
